Assay results taken from patent EP4268819A1 (priority 2022, dated 2023).
Like-named read-outs stand apart in the source and are kept apart here.

Experiments:
[1] = system: SARS-CoV-2 clinical omicron isolate
[2] = system: SARS-CoV-2 clinical omicron isolate; assay: microbe, parasite or virus in culture; settings: Severe acute respiratory syndrome coronavirus 2, Calu-3

| SMILES | Therapeutic range: CC50/IC50 (CTG) ([1]; SARS-CoV-2 omicron in Calu-3 cells, CC50 by CTG) | Therapeutic range: CC50/IC50 (IncuCyte) ([1]; SARS-CoV-2 omicron in Calu-3 cells, CC50 by IncuCyte) | Therapeutic range: CC50/IC50 (MTT) ([1]; SARS-CoV-2 omicron in Calu-3 cells, CC50 by MTT) | Therapeutic range: CC50/IC50 (CTG) ([1]; human, calu-3 cells) | Therapeutic range: CC50/IC50 (IncuCyte) ([1]; human, calu-3 cells) | Therapeutic range: CC50/IC50 (MTT) ([1]; human, calu-3 cells) | IC50 [2] [nM] |
| --- | --- | --- | --- | --- | --- | --- | --- |
| COc1[nH]c(=O)c(C(=O)[C@@H](C)C[C@H](C)[C@@H](Cl)CCl)c(O)c1OC [Atpenin A5, atpenin A5] | CTG: 1.3 | IncuCyte: > 117.6 | MTT: 1.8 | – | – | – | – |
| [H]/N=C(/N)N/C(=N/[H])NCCc1ccccc1 [Phenformin] | – | – | – | CTG: 1674 | IncuCyte: 1111 | MTT: 1123 | 1350 |
